Source: patent US20240109865A1, “INDAZOLE COMPOUNDS AS KINASE INHIBITORS” (TYRA BIOSCIENCES, INC., priority 2020, published 2024)

What was measured:
[1] = target: FGFR3-BAIAP2L1 Ba/F3 cells (Homo sapiens, UniProt P22607); assay: Ba/F3 cell viability assay (CellTiter-Glo 2.0), FGFR3-BAIAP2L1 Ba/F3; type: cell-based; settings: for Ba/F3 FGFR1/FGFR3 Selectivity: FGFR3 > FGFR1 selectivity ratio in Ba/F3 FGFR fusion cell based assays; for IC50: read-out: Ba/F3 Cells FGFR3 (IC50 nM), FGFR3-BAIAP2L1 Ba/F3 cells, 48 hours, Cell Titer Glo 2.0
FGFR3-BAIAP2L1 Ba/F3 cells, sequence (P22607 23-806 limits assumed, change not shown): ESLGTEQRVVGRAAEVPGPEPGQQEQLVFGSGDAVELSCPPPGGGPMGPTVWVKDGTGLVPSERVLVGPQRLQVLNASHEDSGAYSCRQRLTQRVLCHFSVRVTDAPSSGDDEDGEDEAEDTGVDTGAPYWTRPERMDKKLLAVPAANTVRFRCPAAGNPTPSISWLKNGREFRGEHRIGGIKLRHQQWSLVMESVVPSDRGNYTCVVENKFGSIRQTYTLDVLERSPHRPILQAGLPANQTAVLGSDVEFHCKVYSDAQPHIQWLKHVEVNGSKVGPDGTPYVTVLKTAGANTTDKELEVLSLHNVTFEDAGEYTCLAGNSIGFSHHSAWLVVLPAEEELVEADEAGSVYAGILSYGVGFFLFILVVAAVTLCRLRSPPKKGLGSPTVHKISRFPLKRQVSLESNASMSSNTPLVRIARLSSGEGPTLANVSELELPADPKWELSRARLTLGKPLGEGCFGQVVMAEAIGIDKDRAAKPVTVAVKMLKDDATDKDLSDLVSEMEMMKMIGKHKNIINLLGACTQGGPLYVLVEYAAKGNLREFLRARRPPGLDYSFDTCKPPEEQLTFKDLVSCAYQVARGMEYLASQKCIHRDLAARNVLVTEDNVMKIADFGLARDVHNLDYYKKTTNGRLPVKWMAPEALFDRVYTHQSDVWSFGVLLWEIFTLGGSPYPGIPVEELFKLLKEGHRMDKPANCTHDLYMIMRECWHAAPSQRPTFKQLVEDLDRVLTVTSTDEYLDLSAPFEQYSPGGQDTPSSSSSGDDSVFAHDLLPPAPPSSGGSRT
From the text: (§1) Experimental Purpose: Recombinant kinase fusions are transduced into parental Ba/F3, which becomes dependent upon this constitutive kinase activity for IL3-independent survival. Inhibition of kinase activity leads to cell death, which is monitored using CellTiter-Glo® 2.0 (Promega) which measures intracellular ATP concentration that in turn serves as a marker for viability. FGFR1-BCR Ba/F3 and FGFR3-BAIAP2L1 Ba/F3 were obtained from Advanced Cellular Dynamics (Seattle, WA)
(§2) Cell Viability Assay Procedure: Cell Titer-Glo® 2.0 Luminescent cell viability assay reagent was purchased from Promega (Madison, WI). FGFR1-BCR Ba/F3 and FGFR3-BAIAP2L1 Ba/F3 cells were cultured in RPMI1640 media supplemented with 10% fetal bovine serum. Cultures were maintained at 37° C. in a humidified atmosphere of 5% C02 and 95% air.
(§3) Cells were plated in 96-well clear bottom/white plates (Corning #3903) at 10,000 cells/well in 100 μl of media, incubated overnight. The next day, test compound DMSO stock solutions were made at 10 mM and 2 μM final concentration. Compounds were then added to cells in a 9-dose, 10-fold dilution series starting at 30 μM with an HP 300e Digital Dispenser (each dose was applied in triplicate). DMSO was backfilled to each well up to 301 nL total volume of test compound+DMSO, and a total of 301 nL DMSO was added to a control/no test compound well in triplicate. The cells in cell culture plates were incubated with the compounds at 37° C. and 5% C02 for 48 hours. Then 50 μl of Cell Titer Glo 2.0 reagent was added to each well of the cell culture plates. The contents were covered from light and mixed on an orbital shaker at room temperature for 10 min. Luminescence was recorded by a Synergy H1 Microplate Reader (Biotek, Winooski, VT). Cells were assessed as a percentage of DMSO only treated control cells. Curves were plotted and IC50 values were calculated using the GraphPad Prism 8 program based on a sigmoidal dose-response equation (4 parameter).

[2] = target: FGFR1-BCR Ba/F3 cells (Homo sapiens, UniProt P11362); assay: Ba/F3 cell viability assay (CellTiter-Glo 2.0), FGFR1-BCR Ba/F3; type: cell-based; settings: read-out: Ba/F3 Cells FGFR1 (IC50 nM), 48 hours, Cell Titer Glo 2.0
FGFR1-BCR Ba/F3 cells, sequence (P11362 22-822 limits assumed, change not shown): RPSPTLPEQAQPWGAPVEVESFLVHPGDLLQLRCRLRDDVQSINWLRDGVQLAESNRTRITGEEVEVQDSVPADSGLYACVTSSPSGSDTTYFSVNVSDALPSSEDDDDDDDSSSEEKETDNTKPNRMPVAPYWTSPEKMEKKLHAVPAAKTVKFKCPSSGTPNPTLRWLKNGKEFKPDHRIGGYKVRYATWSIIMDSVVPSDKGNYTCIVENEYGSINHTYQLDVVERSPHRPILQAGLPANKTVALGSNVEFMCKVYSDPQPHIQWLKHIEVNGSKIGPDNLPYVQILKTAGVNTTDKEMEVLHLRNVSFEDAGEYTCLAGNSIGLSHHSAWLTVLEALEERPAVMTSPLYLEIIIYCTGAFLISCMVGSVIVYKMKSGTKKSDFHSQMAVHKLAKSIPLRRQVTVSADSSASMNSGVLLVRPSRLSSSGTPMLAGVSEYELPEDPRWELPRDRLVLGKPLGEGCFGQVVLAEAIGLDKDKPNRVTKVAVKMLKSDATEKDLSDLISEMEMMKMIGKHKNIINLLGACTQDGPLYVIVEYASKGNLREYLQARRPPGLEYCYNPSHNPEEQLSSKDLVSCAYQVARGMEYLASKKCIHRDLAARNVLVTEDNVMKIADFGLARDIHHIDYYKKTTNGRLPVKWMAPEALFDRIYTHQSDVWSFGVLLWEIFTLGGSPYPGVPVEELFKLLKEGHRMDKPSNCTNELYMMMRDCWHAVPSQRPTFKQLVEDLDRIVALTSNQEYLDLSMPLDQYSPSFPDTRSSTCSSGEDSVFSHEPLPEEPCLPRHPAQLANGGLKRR
From the text: as §1, §2, §3

[3] = target: FGFR1 (Homo sapiens (Human), UniProt P11362); assay: Kinase assay, binding constants (Kd), kinase-tagged T7 phage, qPCR
FGFR1, sequence (P11362 22-822): as the sequence (P11362 22-822 limits assumed, change not shown) above
In short: (§4)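 Kinase-tagged T7 phage (grown in BL21-derived E. coli) competed with test compound for immobilized biotinylated ligand on streptavidin beads. Kds came from an 11-point 3-fold dilution series at 0.9% final DMSO. Bound kinase was eluted with non-biotinylated ligand and quantified by qPCR, with Hill slope fixed at −1.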

[4] = target: FGFR2 (Homo sapiens (Human), UniProt P21802); assay: as above
FGFR2, sequence (P21802 22-821): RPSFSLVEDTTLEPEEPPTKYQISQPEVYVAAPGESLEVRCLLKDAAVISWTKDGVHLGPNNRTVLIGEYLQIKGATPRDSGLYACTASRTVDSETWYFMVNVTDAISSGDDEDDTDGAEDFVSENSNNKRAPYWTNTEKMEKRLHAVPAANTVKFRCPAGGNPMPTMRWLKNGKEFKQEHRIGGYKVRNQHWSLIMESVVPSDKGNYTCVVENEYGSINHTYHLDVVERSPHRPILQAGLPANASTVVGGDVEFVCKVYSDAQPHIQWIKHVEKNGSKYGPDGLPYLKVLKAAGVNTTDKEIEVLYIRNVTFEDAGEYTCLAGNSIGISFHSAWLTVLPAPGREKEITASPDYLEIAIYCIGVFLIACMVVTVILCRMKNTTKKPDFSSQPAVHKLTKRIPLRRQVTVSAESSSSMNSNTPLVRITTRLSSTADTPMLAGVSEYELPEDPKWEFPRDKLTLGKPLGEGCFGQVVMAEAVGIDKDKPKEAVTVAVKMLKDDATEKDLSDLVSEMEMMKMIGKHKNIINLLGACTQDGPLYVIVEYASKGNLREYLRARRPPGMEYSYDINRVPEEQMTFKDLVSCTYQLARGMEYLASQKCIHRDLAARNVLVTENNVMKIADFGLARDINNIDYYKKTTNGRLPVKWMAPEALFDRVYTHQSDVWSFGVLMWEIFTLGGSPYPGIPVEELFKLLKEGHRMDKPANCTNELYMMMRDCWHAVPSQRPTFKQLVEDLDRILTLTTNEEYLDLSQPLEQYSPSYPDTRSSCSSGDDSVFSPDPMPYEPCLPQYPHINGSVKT
In short: as §4

[5] = target: FGFR3 (Homo sapiens (Human), UniProt P22607); assay: as above
FGFR3, sequence (P22607 23-806): as the sequence (P22607 23-806 limits assumed, change not shown) above
In short: as §4

[6] = target: FGFR3 (V555M) (Homo sapiens (Human), UniProt P22607, V555M); assay: as above; settings: V555M mutant
FGFR3 (V555M), sequence (P22607 23-806 V555M): as the sequence (P22607 23-806 limits assumed, change not shown) above, with V533M counted along it
In short: as §4

[7] = target: FGFR4 (Homo sapiens (Human), UniProt P22455); assay: as above
FGFR4, sequence (P22455 22-802): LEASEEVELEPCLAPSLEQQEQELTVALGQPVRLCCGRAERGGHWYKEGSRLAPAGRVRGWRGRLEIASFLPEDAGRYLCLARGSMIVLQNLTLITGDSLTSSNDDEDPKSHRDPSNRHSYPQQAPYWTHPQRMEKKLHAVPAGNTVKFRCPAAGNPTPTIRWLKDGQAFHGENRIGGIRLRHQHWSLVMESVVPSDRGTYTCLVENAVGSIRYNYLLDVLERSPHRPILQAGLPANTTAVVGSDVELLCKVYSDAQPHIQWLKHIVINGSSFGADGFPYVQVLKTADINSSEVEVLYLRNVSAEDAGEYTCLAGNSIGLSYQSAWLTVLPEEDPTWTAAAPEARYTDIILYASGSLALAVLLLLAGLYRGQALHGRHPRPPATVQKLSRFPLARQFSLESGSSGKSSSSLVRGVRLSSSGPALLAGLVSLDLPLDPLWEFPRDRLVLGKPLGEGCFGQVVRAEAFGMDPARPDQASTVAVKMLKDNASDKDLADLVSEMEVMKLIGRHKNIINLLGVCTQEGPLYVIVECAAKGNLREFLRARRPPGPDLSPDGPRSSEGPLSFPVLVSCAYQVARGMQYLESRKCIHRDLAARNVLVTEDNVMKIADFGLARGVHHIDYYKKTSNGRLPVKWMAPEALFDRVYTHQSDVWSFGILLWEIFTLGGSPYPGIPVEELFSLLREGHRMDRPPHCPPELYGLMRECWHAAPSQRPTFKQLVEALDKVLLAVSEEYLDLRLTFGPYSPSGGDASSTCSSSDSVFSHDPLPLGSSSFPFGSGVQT
In short: as §4

Row | Kd [3] [nM] | Kd [4] [nM] | Kd [5] [nM] | Kd [6] [nM] | Kd [7] [nM] | Structure (SMILES) | Ba/F3 FGFR1/FGFR3 Selectivity [1] | IC50 [1] [nM] | IC50 [2] [nM]
1 | > 300 | > 300 | > 300 | 100 to 300 | 100 to 300 | CNCc1cc(-c2n[nH]c3ccc(O[C@H](C)c4c(Cl)cncc4Cl)cc23)cnc1N1CC2(C1)CN(S(C)(=O)=O)C2 [Example 368, (R)-1-(5-(5-(1-(3,5-dichloropyridin-4-yl)ethoxy)-1H-indazol-3-yl)-2-(6-(methylsulfonyl)-2,6-diazaspiro[3.3]heptan-2-yl)pyridin-3-yl)-N-methylmethanamine] |  |  | 
2 | > 300 | > 300 | 20 to 100 | 20 to 100 | 20 to 100 | CNCc1cc(-c2n[nH]c3cc(OC)c(O[C@H](C)c4c(Cl)cncc4Cl)cc23)cnc1N1CC2(C1)CN(S(C)(=O)=O)C2 [Example 369, (R)-1-(5-(5-(1-(3,5-dichloropyridin-4-yl)ethoxy)-6-methoxy-1H-indazol-3-yl)-2-(6-(methylsulfonyl)-2,6-diazaspiro[3.3]heptan-2-yl)pyridin-3-yl)-N-methylmethanamine] |  |  | 
3 | > 300 | > 300 | 20 to 100 | 20 to 100 | 20 to 100 | C[C@@H](Oc1cc2c(-c3cnc(N4CCC4)c(S(C)(=O)=O)c3)n[nH]c2cc1Cl)c1c(Cl)cncc1Cl [Example 370, (R)-3-(6-(azetidin-1-yl)-5-(methylsulfonyl)pyridin-3-yl)-6-chloro-5-(1-(3,5-dichloropyridin-4-yl)ethoxy)-1H-indazole] |  |  | 
4 | > 300 | > 300 | > 300 | > 300 | 100 to 300 | C[C@@H](Oc1cc2c(-c3cnc(N4CC(C)(C)C4)c(CN(C)C)c3)n[nH]c2cc1Cl)c1c(Cl)cncc1Cl [Example 371, (R)-1-(5-(6-chloro-5-(1-(3,5-dichloropyridin-4-yl)ethoxy)-1H-indazol-3-yl)-2-(3,3-dimethylazetidin-1-yl)pyridin-3-yl)-N,N-dimethylmethanamine] |  |  | 
5 | 100 to 300 | 100 to 300 | 20 to 100 | 1 to 20 | 1 to 20 | COc1cc2[nH]nc(-c3cnc(N4CC[C@H]4C)c(S(C)(=O)=O)c3)c2cc1O[C@H](C)c1c(Cl)cncc1Cl [Example 372, 5-((R)-1-(3,5-dichloropyridin-4-yl)ethoxy)-6-methoxy-3-(6-((R)-2-methylazetidin-1-yl)-5-(methylsulfonyl)pyridin-3-yl)-1H-indazole] |  |  | 
6 | > 300 | > 300 | 100 to 300 | 20 to 100 | 20 to 100 | C[C@@H]1CCN1c1ncc(-c2n[nH]c3cc(Cl)c(O[C@H](C)c4c(Cl)cncc4Cl)cc23)cc1C#N [Example 374, 5-(6-chloro-5-((R)-1-(3,5-dichloropyridin-4-yl)ethoxy)-1H-indazol-3-yl)-2-((R)-2-methylazetidin-1-yl)nicotinonitrile] |  |  | 
7 | > 300 | > 300 | 100 to 300 | 20 to 100 | 1 to 20 | COc1cc2[nH]nc(-c3cnc(N4CC[C@@H]4C)c(S(C)(=O)=O)c3)c2cc1O[C@H](C)c1c(Cl)cncc1Cl [Example 375, 5-((R)-1-(3,5-dichloropyridin-4-yl)ethoxy)-6-methoxy-3-(6-((S)-2-methylazetidin-1-yl)-5-(methylsulfonyl)pyridin-3-yl)-1H-indazole] |  |  | 
8 | > 300 | 100 to 300 | 20 to 100 | 20 to 100 | 1 to 20 | COc1cc2[nH]nc(-c3cnc(N4CC(C)(C)C4)c(S(C)(=O)=O)c3)c2cc1O[C@H](C)c1c(Cl)cncc1Cl [Example 376, (R)-5-(1-(3,5-dichloropyridin-4-yl)ethoxy)-3-(6-(3,3-dimethylazetidin-1-yl)-5-(methylsulfonyl)pyridin-3-yl)-6-methoxy-1H-indazole] |  |  | 
9 | > 300 | > 300 | 100 to 300 | 20 to 100 | 1 to 20 | C[C@@H](Oc1cc2c(-c3cnc(N4CCC4)c(C#N)c3)n[nH]c2cc1Cl)c1c(Cl)cncc1Cl [Example 377, 2-(azetidin-1-yl)-5-[6-chloro-5-[(1R)-1-(3,5-dichloro-4-pyridyl)ethoxy]-1H-indazol-3-yl]pyridine-3-carbonitrile] |  |  | 
10 | 100 to 300 | 20 to 100 | 1 to 20 | 1 to 20 | 1 to 20 | C[C@@H](Oc1cc2c(-c3cnc(N4CC5(CCS(=O)(=O)C5)C4)c(C#N)c3)n[nH]c2cc1F)c1c(Cl)cncc1Cl [Example 378, 5-[5-[(1R)-1-(3,5-dichloro-4-pyridyl)ethoxy]-6-fluoro-1H-indazol-3-yl]-2-(6,6-dioxo-6λ^6-thia-2-azaspiro[3.4]octan-2-yl)pyridine-3-carbonitrile] |  |  | 
11 | 100 to 300 | 100 to 300 | 20 to 100 | 1 to 20 | 1 to 20 | Cc1ncc(Cl)c([C@@H](C)Oc2cc3c(-c4cnc(N5CC6(C5)CN(S(C)(=O)=O)C6)c(C#N)c4)n[nH]c3cc2F)c1Cl [Example 379, 5-[5-[(1R)-1-(3,5-dichloro-2-methyl-4-pyridyl)ethoxy]-6-fluoro-1H-indazol-3-yl]-2-(2-methylsulfonyl-2,6-diazaspiro[3.3]heptan-6-yl)pyridine-3-carbonitrile] |  |  | 
12 | 100 to 300 | > 300 | 20 to 100 | 20 to 100 | 1 to 20 | C[C@@H](Oc1cc2c(-c3cnc(N4CC5(CCCN(S(C)(=O)=O)C5)C4)c(C#N)c3)n[nH]c2cc1F)c1c(Cl)cncc1Cl [Example 380, 5-[5-[(1R)-1-(3,5-dichloro-4-pyridyl)ethoxy]-6-fluoro-1H-indazol-3-yl]-2-(8-methylsulfonyl-2,8-diazaspiro[3.5]nonan-2-yl)pyridine-3-carbonitrile] |  |  | 

Row | Structure (SMILES) | Kd [3] [nM] | Kd [4] [nM] | Kd [5] [nM] | Kd [6] [nM] | Kd [7] [nM] | Ba/F3 FGFR1/FGFR3 Selectivity [1] | IC50 [1] [nM] | IC50 [2] [nM]
13 | COC(=O)N1CCN(c2ccc(-c3n[nH]c4ccc(O[C@H](C)c5c(Cl)cncc5Cl)cc34)cn2)CC1 [Example 7, Methyl 4-[5-[5-[(1R)-1-(3,5-dichloro-4-pyridyl)ethoxy]-1H-indazol-3-yl]-2-pyridyl]piperazine-1-carboxylate] | 1 to 20 | 20 to 100 | 1 to 20 | 1 to 20 | 1 to 20 | 15 | 20 to 100 | > 300
14 | C[C@@H](Oc1ccc2[nH]nc(-c3ccc(Cl)nc3)c2c1)c1c(Cl)cncc1Cl [Example 18, 3-(6-Chloro-3-pyridyl)-5-[(1R)-1-(3,5-dichloro-4-pyridyl)ethoxy]-1H-indazole] | 20 to 100 | 20 to 100 | 1 to 20 | 1 to 20 | 1 to 20 | 21 | 20 to 100 | > 300
15 | C[C@@H](Oc1ccc2[nH]nc(-c3ccc(F)nc3)c2c1)c1c(Cl)cncc1Cl [Example 25, 5-[(1R)-1-(3,5-Dichloro-4-pyridyl)ethoxy]-3-(6-fluoro-3-pyridyl)-1H-indazole] | 20 to 100 | 20 to 100 | 1 to 20 | 1 to 20 | 20 to 100 | 22 | 20 to 100 | > 300
16 | C[C@@H](Oc1ccc2[nH]nc(-c3ccc(N4CCCNC(=O)C4)nc3)c2c1)c1c(Cl)cncc1Cl [Example 35, 4-[5-[5-[(1R)-1-(3,5-dichloro-4-pyridyl)ethoxy]-1H-indazol-3-yl]-2-pyridyl]-1,4-diazepan-2-one] | 20 to 100 | 20 to 100 | 1 to 20 | 1 to 20 | 1 to 20 | 6 | 20 to 100 | > 300
17 | C[C@@H](Oc1ccc2[nH]nc(-c3ccc(N4CCNC(=O)C4)nc3)c2c1)c1c(Cl)cncc1Cl [Example 36, 4-[5-[5-[(1R)-1-(3,5-dichloro-4-pyridyl)ethoxy]-1H-indazol-3-yl]-2-pyridyl]piperazin-2-one] | 1 to 20 | 1 to 20 | 1 to 20 | 1 to 20 | 1 to 20 | 23 | 1 to 20 | 20 to 100
